{"source": "PubChem BioAssay (NCI)", "experiment_in_all_cases": "inhibition of tumour cell growth, NCI panel, 48 h", "key": {"[1]": {"test_system": "ACHN renal"}, "[2]": {"test_system": "NCI-H226 lung"}, "[3]": {"test_system": "MDA-MB-435"}, "[4]": {"test_system": "CCRF-CEM leukemia"}, "[5]": {"test_system": "IGROV1 ovarian"}, "[6]": {"test_system": "M14 melanoma"}, "[7]": {"test_system": "KM12 colon"}, "[8]": {"test_system": "NCI-H460 lung"}, "[9]": {"test_system": "MCF7 breast"}, "[10]": {"test_system": "T-47D breast"}, "[11]": {"test_system": "BT-549 breast"}, "[12]": {"test_system": "HOP-62 NSCLC"}, "[13]": {"test_system": "SW-620 colon"}, "[14]": {"test_system": "SN12C renal"}, "[15]": {"test_system": "SR leukemia"}, "[16]": {"test_system": "MDA-MB-231 breast"}, "[17]": {"test_system": "SF-295 CNS"}, "[18]": {"test_system": "UACC-257 melanoma"}, "[19]": {"test_system": "HCT-15 colon"}, "[20]": {"test_system": "COLO 205 colon"}, "[21]": {"test_system": "A549 NSCLC"}, "[22]": {"test_system": "DU-145 prostate"}, "[23]": {"test_system": "A498 renal"}, "[24]": {"test_system": "SF-539 CNS"}, "[25]": {"test_system": "CAKI-1 renal"}, "[26]": {"test_system": "UO-31 renal"}, "[27]": {"test_system": "LOX IMVI melanoma"}, "[28]": {"test_system": "SK-MEL-2 melanoma"}, "[29]": {"test_system": "SK-MEL-5 melanoma"}, "[30]": {"test_system": "RPMI-8226 leukemia"}, "[31]": {"test_system": "RXF 393 renal"}, "[32]": {"test_system": "HCT-116 colon"}, "[33]": {"test_system": "SK-OV-3 ovarian"}, "[34]": {"test_system": "HL-60(TB) leukemia"}, "[35]": {"test_system": "SF-268 CNS"}, "[36]": {"test_system": "U251 CNS"}, "[37]": {"test_system": "OVCAR-8 ovarian"}, "[38]": {"test_system": "OVCAR-3 ovarian"}, "[39]": {"test_system": "EKVX NSCLC"}, "[40]": {"test_system": "MOLT-4 leukemia"}, "[41]": {"test_system": "PC-3 prostate"}, "[42]": {"test_system": "HS 578T breast"}, "[43]": {"test_system": "SNB-19 CNS"}, "[44]": {"test_system": "NCI-H522 lung"}, "[45]": {"test_system": "786-0 renal"}, "[46]": {"test_system": "UACC-62 melanoma"}, "[47]": {"test_system": "TK-10 renal"}, "[48]": {"test_system": "HOP-92 NSCLC"}, "[49]": {"test_system": "K-562 leukemia"}}, "note": "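96-well plates; 48 h exposure; 5 concentrations. Endpoints by linear interpolation between flanking doses. Not reached: highest tested concentration assigned. Here, GI50 denotes the concentration required for 50% inhibition of growth. TGI marks complete inhibition of growth.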", "data": [{"molecule": "Cc1ccc(C2C3Cc4ccccc4C3=NN2c2ccc(S(=O)(=O)/N=c3\\scc(-c4ccccc4)n3-c3ccccc3)cc2)cc1", "note": "(stereo not drawn)", "values": [{"measurement": "GI50", "setting": "[1]", "value": 21.6, "unit": "µM"}, {"measurement": "TGI", "setting": "[1]", "value": 50.3, "unit": "µM"}, {"measurement": "GI50", "setting": "[2]", "value": 21.4, "unit": "µM"}, {"measurement": "TGI", "setting": "[2]", "value": 67.2, "unit": "µM"}, {"measurement": "GI50", "setting": "[3]", "value": 17.6, "unit": "µM"}, {"measurement": "TGI", "setting": "[3]", "value": 37.7, "unit": "µM"}, {"measurement": "GI50", "setting": "[4]", "value": 17.1, "unit": "µM"}, {"measurement": "TGI", "setting": "[4]", "value": 44, "unit": "µM"}, {"measurement": "GI50", "setting": "[5]", "value": 26.5, "unit": "µM"}, {"measurement": "TGI", "setting": "[5]", "value": "> 100", "unit": "µM"}, {"measurement": "GI50", "setting": "[6]", "value": 30.6, "unit": "µM"}, {"measurement": "TGI", "setting": "[6]", "value": "> 100", "unit": "µM"}, {"measurement": "GI50", "setting": "[7]", "value": 20.2, "unit": "µM"}, {"measurement": "TGI", "setting": "[7]", "value": 65.2, "unit": "µM"}, {"measurement": "GI50", "setting": "[8]", "value": 18.1, "unit": "µM"}, {"measurement": "TGI", "setting": "[8]", "value": 45.1, "unit": "µM"}, {"measurement": "GI50", "setting": "[9]", "value": 5.71, "unit": "µM"}, {"measurement": "TGI", "setting": "[9]", "value": 33.7, "unit": "µM"}, {"measurement": "GI50", "setting": "[10]", "value": 35.5, "unit": "µM"}, {"measurement": "TGI", "setting": "[10]", "value": "> 100", "unit": "µM"}, {"measurement": "GI50", "setting": "[11]", "value": 18.8, "unit": "µM"}, {"measurement": "TGI", "setting": "[11]", "value": 43.3, "unit": "µM"}, {"measurement": "GI50", "setting": "[12]", "value": 40.2, "unit": "µM"}, {"measurement": "TGI", "setting": "[12]", "value": "> 100", "unit": "µM"}, {"measurement": "GI50", "setting": "[13]", "value": 15.7, "unit": "µM"}, {"measurement": "TGI", "setting": "[13]", "value": 31.6, "unit": "µM"}, {"measurement": "GI50", "setting": "[14]", "value": 16.8, "unit": "µM"}, {"measurement": "TGI", "setting": "[14]", "value": 31.8, "unit": "µM"}, {"measurement": "GI50", "setting": "[15]", "value": 11.1, "unit": "µM"}, {"measurement": "TGI", "setting": "[15]", "value": 24.5, "unit": "µM"}, {"measurement": "GI50", "setting": "[16]", "value": 14.9, "unit": "µM"}, {"measurement": "TGI", "setting": "[16]", "value": 32.7, "unit": "µM"}, {"measurement": "GI50", "setting": "[17]", "value": 19.1, "unit": "µM"}, {"measurement": "TGI", "setting": "[17]", "value": 40.1, "unit": "µM"}, {"measurement": "GI50", "setting": "[18]", "value": 20.4, "unit": "µM"}, {"measurement": "TGI", "setting": "[18]", "value": 43.3, "unit": "µM"}, {"measurement": "GI50", "setting": "[19]", "value": 25.4, "unit": "µM"}, {"measurement": "TGI", "setting": "[19]", "value": 79.2, "unit": "µM"}, {"measurement": "GI50", "setting": "[20]", "value": 23.3, "unit": "µM"}, {"measurement": "TGI", "setting": "[20]", "value": 52.1, "unit": "µM"}, {"measurement": "GI50", "setting": "[21]", "value": 19, "unit": "µM"}, {"measurement": "TGI", "setting": "[21]", "value": 60.1, "unit": "µM"}, {"measurement": "GI50", "setting": "[22]", "value": 24.7, "unit": "µM"}, {"measurement": "TGI", "setting": "[22]", "value": 81.9, "unit": "µM"}, {"measurement": "GI50", "setting": "[23]", "value": 14.9, "unit": "µM"}, {"measurement": "TGI", "setting": "[23]", "value": 36.1, "unit": "µM"}, {"measurement": "GI50", "setting": "[24]", "value": 19.5, "unit": "µM"}, {"measurement": "TGI", "setting": "[24]", "value": 37.3, "unit": "µM"}, {"measurement": "GI50", "setting": "[25]", "value": 18.6, "unit": "µM"}, {"measurement": "TGI", "setting": "[25]", "value": 44.7, "unit": "µM"}, {"measurement": "GI50", "setting": "[26]", "value": 18.4, "unit": "µM"}, {"measurement": "TGI", "setting": "[26]", "value": 55.4, "unit": "µM"}, {"measurement": "GI50", "setting": "[27]", "value": 17.4, "unit": "µM"}, {"measurement": "TGI", "setting": "[27]", "value": 31.2, "unit": "µM"}, {"measurement": "GI50", "setting": "[28]", "value": 21.9, "unit": "µM"}, {"measurement": "TGI", "setting": "[28]", "value": 52.6, "unit": "µM"}, {"measurement": "GI50", "setting": "[29]", "value": 13.2, "unit": "µM"}, {"measurement": "TGI", "setting": "[29]", "value": 26, "unit": "µM"}, {"measurement": "GI50", "setting": "[30]", "value": 13.4, "unit": "µM"}, {"measurement": "TGI", "setting": "[30]", "value": 35.6, "unit": "µM"}, {"measurement": "GI50", "setting": "[31]", "value": 24.8, "unit": "µM"}, {"measurement": "TGI", "setting": "[31]", "value": 64.6, "unit": "µM"}, {"measurement": "GI50", "setting": "[32]", "value": 18.6, "unit": "µM"}, {"measurement": "TGI", "setting": "[32]", "value": "> 100", "unit": "µM"}, {"measurement": "GI50", "setting": "[33]", "value": 33.1, "unit": "µM"}, {"measurement": "TGI", "setting": "[33]", "value": "> 100", "unit": "µM"}, {"measurement": "GI50", "setting": "[34]", "value": 14.5, "unit": "µM"}, {"measurement": "TGI", "setting": "[34]", "value": 31.5, "unit": "µM"}, {"measurement": "GI50", "setting": "[35]", "value": 16.7, "unit": "µM"}, {"measurement": "TGI", "setting": "[35]", "value": 42, "unit": "µM"}, {"measurement": "GI50", "setting": "[36]", "value": 18.7, "unit": "µM"}, {"measurement": "TGI", "setting": "[36]", "value": 37.8, "unit": "µM"}, {"measurement": "GI50", "setting": "[37]", "value": 21.9, "unit": "µM"}, {"measurement": "TGI", "setting": "[37]", "value": 58.5, "unit": "µM"}, {"measurement": "GI50", "setting": "[38]", "value": 16.6, "unit": "µM"}, {"measurement": "TGI", "setting": "[38]", "value": 43.7, "unit": "µM"}, {"measurement": "GI50", "setting": "[39]", "value": 21.5, "unit": "µM"}, {"measurement": "TGI", "setting": "[39]", "value": 65.7, "unit": "µM"}, {"measurement": "GI50", "setting": "[40]", "value": 12.8, "unit": "µM"}, {"measurement": "TGI", "setting": "[40]", "value": 31.1, "unit": "µM"}, {"measurement": "GI50", "setting": "[41]", "value": 21.3, "unit": "µM"}, {"measurement": "TGI", "setting": "[41]", "value": 53.2, "unit": "µM"}, {"measurement": "GI50", "setting": "[42]", "value": 17.2, "unit": "µM"}, {"measurement": "TGI", "setting": "[42]", "value": 44.8, "unit": "µM"}, {"measurement": "GI50", "setting": "[43]", "value": 64.8, "unit": "µM"}, {"measurement": "TGI", "setting": "[43]", "value": "> 100", "unit": "µM"}, {"measurement": "GI50", "setting": "[44]", "value": 22, "unit": "µM"}, {"measurement": "TGI", "setting": "[44]", "value": 66.8, "unit": "µM"}, {"measurement": "GI50", "setting": "[45]", "value": 32, "unit": "µM"}, {"measurement": "TGI", "setting": "[45]", "value": "> 100", "unit": "µM"}, {"measurement": "GI50", "setting": "[46]", "value": 14, "unit": "µM"}, {"measurement": "TGI", "setting": "[46]", "value": 27.7, "unit": "µM"}, {"measurement": "GI50", "setting": "[47]", "value": 19.1, "unit": "µM"}, {"measurement": "TGI", "setting": "[47]", "value": 63.6, "unit": "µM"}, {"measurement": "GI50", "setting": "[48]", "value": 18.8, "unit": "µM"}, {"measurement": "TGI", "setting": "[48]", "value": 41.7, "unit": "µM"}, {"measurement": "GI50", "setting": "[49]", "value": 14.9, "unit": "µM"}, {"measurement": "TGI", "setting": "[49]", "value": 32.6, "unit": "µM"}]}]}
